Data from PubChem BioAssay (NCI).
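Each compound was tested at five concentrations against cells in 96-well plates for 48 hours. TGI is the concentration that stops growth completely.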

Key:
Assay in all cases: NCI anticancer screen, dose series, 48 h
UO-31 renal = system: UO-31 renal
HT29 colon = system: HT29 colon
MOLT-4 leukemia = system: MOLT-4 leukemia
SF-268 CNS = system: SF-268 CNS
BT-549 breast = system: BT-549 breast
SNB-19 CNS = system: SNB-19 CNS
MCF7 breast = system: MCF7 breast
M14 melanoma = system: M14 melanoma
RXF 393 renal = system: RXF 393 renal
SK-MEL-2 melanoma = system: SK-MEL-2 melanoma
HS 578T breast = system: HS 578T breast
NCI-H460 lung = system: NCI-H460 lung
U251 CNS = system: U251 CNS
OVCAR-8 ovarian = system: OVCAR-8 ovarian
K-562 leukemia = system: K-562 leukemia
NCI-H522 lung = system: NCI-H522 lung
NCI-H226 lung = system: NCI-H226 lung
SNB-75 CNS = system: SNB-75 CNS
ACHN renal = system: ACHN renal
MALME-3M melanoma = system: MALME-3M melanoma
T-47D breast = system: T-47D breast
COLO 205 colon = system: COLO 205 colon
LOX IMVI melanoma = system: LOX IMVI melanoma
IGROV1 ovarian = system: IGROV1 ovarian
TK-10 renal = system: TK-10 renal
MDA-N = system: MDA-N
OVCAR-5 ovarian = system: OVCAR-5 ovarian
UACC-257 melanoma = system: UACC-257 melanoma
HOP-92 NSCLC = system: HOP-92 NSCLC
SN12C renal = system: SN12C renal
CAKI-1 renal = system: CAKI-1 renal
SF-295 CNS = system: SF-295 CNS
RPMI-8226 leukemia = system: RPMI-8226 leukemia
UACC-62 melanoma = system: UACC-62 melanoma
SF-539 CNS = system: SF-539 CNS
OVCAR-3 ovarian = system: OVCAR-3 ovarian
SK-MEL-5 melanoma = system: SK-MEL-5 melanoma
EKVX NSCLC = system: EKVX NSCLC
DU-145 prostate = system: DU-145 prostate
PC-3 prostate = system: PC-3 prostate
MDA-MB-231 breast = system: MDA-MB-231 breast
HL-60(TB) leukemia = system: HL-60(TB) leukemia
A549 NSCLC = system: A549 NSCLC
MDA-MB-435 = system: MDA-MB-435
HCT-15 colon = system: HCT-15 colon
786-0 renal = system: 786-0 renal
NCI-H23 lung = system: NCI-H23 lung
SK-MEL-28 melanoma = system: SK-MEL-28 melanoma
HCT-116 colon = system: HCT-116 colon
NCI/ADR-RES ovarian = system: NCI/ADR-RES ovarian
OVCAR-4 ovarian = system: OVCAR-4 ovarian
HCC-2998 colon = system: HCC-2998 colon
SW-620 colon = system: SW-620 colon
SR leukemia = system: SR leukemia
A498 renal = system: A498 renal
KM12 colon = system: KM12 colon
SK-OV-3 ovarian = system: SK-OV-3 ovarian
HOP-62 NSCLC = system: HOP-62 NSCLC

In the case of N/C(=N\Nc1ccc(C(=O)O)cc1)c1cnccn1, the TGI (UO-31 renal) is reported as > 100 µM, the TGI (HT29 colon) is reported as > 100 µM and the TGI (MOLT-4 leukemia) is reported as > 100 µM. The TGI (SF-268 CNS) was > 100 µM, the TGI (BT-549 breast) was > 100 µM and the TGI (SNB-19 CNS) was > 100 µM. For the same molecule, the TGI (MCF7 breast) was > 100 µM, the TGI (M14 melanoma) was > 100 µM and the TGI (RXF 393 renal) was > 100 µM. For the same molecule, the TGI (SK-MEL-2 melanoma) was > 100 µM, the TGI (HS 578T breast) was > 100 µM and the TGI (NCI-H460 lung) was > 100 µM. For the same molecule, the TGI (U251 CNS) was > 100 µM, the TGI (OVCAR-8 ovarian) was > 100 µM and the TGI (K-562 leukemia) was > 100 µM. The TGI (NCI-H522 lung) was > 100 µM, the TGI (NCI-H226 lung) was > 100 µM and the TGI (SNB-75 CNS) was > 100 µM. For the same molecule, the TGI (ACHN renal) was > 100 µM, the TGI (MALME-3M melanoma) was > 100 µM and the TGI (T-47D breast) was > 100 µM. For the same molecule, the TGI (COLO 205 colon) was > 100 µM, the TGI (LOX IMVI melanoma) was > 100 µM and the TGI (IGROV1 ovarian) was > 100 µM. The TGI (TK-10 renal) was > 100 µM, the TGI (MDA-N) was > 100 µM and the TGI (OVCAR-5 ovarian) was > 100 µM. For the same molecule, the TGI (UACC-257 melanoma) was > 100 µM, the TGI (HOP-92 NSCLC) was > 100 µM and the TGI (SN12C renal) was > 100 µM. For the same molecule, the TGI (CAKI-1 renal) was > 100 µM, the TGI (SF-295 CNS) was > 100 µM and the TGI (RPMI-8226 leukemia) was > 100 µM. The TGI (UACC-62 melanoma) was > 100 µM, the TGI (SF-539 CNS) was > 100 µM and the TGI (OVCAR-3 ovarian) was > 100 µM. For the same molecule, the TGI (SK-MEL-5 melanoma) was > 100 µM, the TGI (EKVX NSCLC) was > 100 µM and the TGI (DU-145 prostate) was > 100 µM. The TGI (PC-3 prostate) was > 100 µM, the TGI (MDA-MB-231 breast) was > 100 µM and the TGI (HL-60(TB) leukemia) was 0.166 µM. For the same molecule, the TGI (A549 NSCLC) was > 100 µM, the TGI (MDA-MB-435) was > 100 µM and the TGI (HCT-15 colon) was > 100 µM. For the same molecule, the TGI (786-0 renal) was > 100 µM, the TGI (NCI-H23 lung) was > 100 µM and the TGI (SK-MEL-28 melanoma) was > 100 µM. The TGI (HCT-116 colon) was > 100 µM, the TGI (NCI/ADR-RES ovarian) was > 100 µM and the TGI (OVCAR-4 ovarian) was > 100 µM. The TGI (HCC-2998 colon) was > 100 µM, the TGI (SW-620 colon) was > 100 µM and the TGI (SR leukemia) was > 100 µM. The TGI (A498 renal) was > 100 µM, the TGI (KM12 colon) was > 100 µM and the TGI (SK-OV-3 ovarian) was > 100 µM. The TGI (HOP-62 NSCLC) was > 100 µM.
In the case of Cc1cc(Cc2c(C)c(C)c(Cc3cc(C)cc(C(C)(C)C)c3O)c(C)c2C)c(O)c(C(C)(C)C)c1, the TGI (UO-31 renal) is reported as > 100 µM, the TGI (HT29 colon) is reported as > 100 µM and the TGI (MOLT-4 leukemia) is reported as > 100 µM. The TGI (SF-268 CNS) was > 100 µM, the TGI (BT-549 breast) was > 100 µM and the TGI (SNB-19 CNS) was > 100 µM. For the same molecule, the TGI (MCF7 breast) was > 100 µM, the TGI (M14 melanoma) was > 100 µM and the TGI (RXF 393 renal) was > 100 µM. The TGI (SK-MEL-2 melanoma) was > 100 µM, the TGI (HS 578T breast) was > 100 µM and the TGI (NCI-H460 lung) was > 100 µM. The TGI (U251 CNS) was > 100 µM, the TGI (OVCAR-8 ovarian) was > 100 µM and the TGI (K-562 leukemia) was > 100 µM. The TGI (NCI-H522 lung) was > 100 µM, the TGI (NCI-H226 lung) was > 100 µM and the TGI (SNB-75 CNS) was > 100 µM. The TGI (ACHN renal) was > 100 µM, the TGI (MALME-3M melanoma) was > 100 µM and the TGI (T-47D breast) was > 100 µM. The TGI (COLO 205 colon) was > 100 µM, the TGI (LOX IMVI melanoma) was > 100 µM and the TGI (IGROV1 ovarian) was > 100 µM. For the same molecule, the TGI (TK-10 renal) was > 100 µM, the TGI (MDA-N) was > 100 µM and the TGI (OVCAR-5 ovarian) was > 100 µM. For the same molecule, the TGI (UACC-257 melanoma) was > 100 µM, the TGI (HOP-92 NSCLC) was > 100 µM and the TGI (SN12C renal) was > 100 µM. The TGI (CAKI-1 renal) was > 100 µM, the TGI (SF-295 CNS) was > 100 µM and the TGI (RPMI-8226 leukemia) was > 100 µM. For the same molecule, the TGI (UACC-62 melanoma) was > 100 µM, the TGI (SF-539 CNS) was > 100 µM and the TGI (OVCAR-3 ovarian) was > 100 µM. For the same molecule, the TGI (SK-MEL-5 melanoma) was > 100 µM, the TGI (EKVX NSCLC) was > 100 µM and the TGI (DU-145 prostate) was > 100 µM. For the same molecule, the TGI (PC-3 prostate) was > 100 µM, the TGI (MDA-MB-231 breast) was > 100 µM and the TGI (HL-60(TB) leukemia) was 83.6 µM. For the same molecule, the TGI (A549 NSCLC) was > 100 µM, the TGI (MDA-MB-435) was > 100 µM and the TGI (HCT-15 colon) was > 100 µM. For the same molecule, the TGI (786-0 renal) was > 100 µM, the TGI (SK-MEL-28 melanoma) was > 100 µM and the TGI (HCT-116 colon) was > 100 µM. The TGI (NCI/ADR-RES ovarian) was > 100 µM, the TGI (OVCAR-4 ovarian) was > 100 µM and the TGI (SW-620 colon) was > 100 µM. For the same molecule, the TGI (SR leukemia) was > 100 µM, the TGI (A498 renal) was > 100 µM and the TGI (KM12 colon) was > 100 µM. For the same molecule, the TGI (SK-OV-3 ovarian) was > 100 µM and the TGI (HOP-62 NSCLC) was > 100 µM.
